Source: patent US9382208B1, “Negative allosteric modulators of metabotropic glutamate receptor 2” (Vanderbilt University, priority 2015, dated 2016)
Read-outs that look alike come from different tables or passages of the source.

Experiments:
[1] = test system: group II mGlu receptors (mGlu2 and mGlu3); settings: cited from earlier work
[2] = CFS model; cited from earlier work
[3] = treatment for 7 days; cited from earlier work
rat = rat FST, normal animals; cited from earlier work
[4] = test system: olfactory bulbectomized rats; settings: repeated administration for 14 days; cited from earlier work
mice = settings: cited from earlier work
mouse = mouse TST, normal animals; cited from earlier work
[5] = test system: social isolation-reared mice; settings: cited from earlier work
Helpless (H) mice = settings: cited from earlier work; for activity in the tail suspension test: Helpless (H) mice
[6] = test system: central mGlu2 and mGlu3 receptors; settings: in vivo; cited from earlier work
C57B16/J mice = settings: FST; cited from earlier work
[7] = test system: Aβ-induced neurodegeneration; settings: cited from earlier work
rat mGlu2 = target: T1, rat mGlu2 (Rattus norvegicus, UniProt P31421); test: mGlu2 Ca2+ flux assay; assay type: cell-based; settings: for IC50: Gα15 HEK293 cells stably expressing rat mGlu2, glutamate EC80 addition, read-out: rat mGlu2 IC50; for remaining activity at 30 µM: amplitude of response in the presence of 30 μM test compound as percentage of maximal response to glutamate, read-out: rat mGlu2 Glu max (%)
T1 construct: expressed in transfected cells
Summary of the method: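 Gα15 HEK293 cells stably expressing rat mGlu2, Fluo-4 loaded; compound added, then glutamate at EC20 after 2.3 min and EC80 afterward, calcium flux read as F/F0. Peak amplitude around EC80 addition normalized to glutamate max; IC50 by unconstrained 4-parameter fit, top concentration 30 μM.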

T1 sequence (P31421 19-872): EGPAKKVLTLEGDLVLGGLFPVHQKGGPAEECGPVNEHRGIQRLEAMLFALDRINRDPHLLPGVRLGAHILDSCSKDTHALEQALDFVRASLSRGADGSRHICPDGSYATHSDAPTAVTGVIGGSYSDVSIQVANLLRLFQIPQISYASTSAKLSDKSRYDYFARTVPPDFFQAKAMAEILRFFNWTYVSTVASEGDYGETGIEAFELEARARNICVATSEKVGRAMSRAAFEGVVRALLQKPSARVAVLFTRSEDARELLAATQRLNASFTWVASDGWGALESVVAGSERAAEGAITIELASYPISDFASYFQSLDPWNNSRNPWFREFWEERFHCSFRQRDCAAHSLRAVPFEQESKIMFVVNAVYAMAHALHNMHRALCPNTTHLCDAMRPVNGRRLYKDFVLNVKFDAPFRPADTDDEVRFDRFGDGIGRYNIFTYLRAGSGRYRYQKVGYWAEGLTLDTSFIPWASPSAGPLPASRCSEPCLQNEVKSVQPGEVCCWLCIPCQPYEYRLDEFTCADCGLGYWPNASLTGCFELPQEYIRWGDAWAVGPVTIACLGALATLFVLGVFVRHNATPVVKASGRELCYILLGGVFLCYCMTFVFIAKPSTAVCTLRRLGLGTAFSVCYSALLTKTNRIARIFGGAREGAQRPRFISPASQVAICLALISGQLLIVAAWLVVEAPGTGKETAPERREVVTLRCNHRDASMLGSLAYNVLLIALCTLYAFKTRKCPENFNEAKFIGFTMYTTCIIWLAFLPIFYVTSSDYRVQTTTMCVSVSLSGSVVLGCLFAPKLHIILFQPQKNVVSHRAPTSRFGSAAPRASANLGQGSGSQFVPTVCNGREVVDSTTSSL

SMILES | IC50 (rat mGlu2) [nM] | remaining activity at 30 µM (rat mGlu2) [%] | other results
CCCCCCCOC(=O)[C@@]1(F)[C@@H]2C[C@@H](OCc3ccc(Cl)c(Cl)c3)[C@@](N)(C(=O)O)[C@@H]21 [BCI-838] | – | – | levels of monomeric and oAβ peptides in the hippocampus and cortex ([1]; three months of treatment, two AD mouse models): decreased; Dutch APP transgene-associated learning and memory impairment ([1]; three months of treatment): reversed; anxiolytic effects ([1]; three months of treatment): anxiolytic effects; hippocampal progenitor cell proliferation ([1]; wild-type and Alzheimer's diseased mice, 3 months): stimulated
CN1C(=O)CN=C(c2ccccc2)c2cc(Cl)ccc21 [diazepam] | – | – | freezing behavior [2]: significantly decreased
N[C@]1(C(=O)O)[C@H]2[C@@H](C[C@H]1OCc1ccc(Cl)c(Cl)c1)[C@]2(F)C(=O)O [MGS0039] | – | – | number of escape failures [3]: significantly reduced; antidepressant-like effects (rat): Antidepressant-like effects; freezing behavior [2]: significantly decreased; hyperactivity in the open field test [4]: attenuated the hyperactivity; learning deficit in the passive avoidance test [4]: attenuated the learning deficit; marble-burying behavior (mice): reduced marble-burying behavior; spontaneous locomotor activity (mice): no significant change; antidepressant-like effects (mouse): Antidepressant-like effects; immobility in the FST [5]: reversed the increased immobility
N[C@](CC1c2ccccc2Oc2ccccc21)(C(=O)O)[C@H]1C[C@@H]1C(=O)O [LY341495] | – | – | activity in the tail suspension test (Helpless (H) mice): active; antidepressant effect in helpless mice (Helpless (H) mice; acute administration): potent antidepressant effect; antidepressant-like effects (rat): Antidepressant-like effects; hypolocomotor effect of mGlu2/3 agonist (LY379268) [6]: achieved the same result; immobility time (C57B16/J mice): dose-dependently reduced; Aβ-induced neurodegeneration [7]: prevented; marble-burying behavior (mice): significantly reduce marble-burying behavior; antidepressant-like effects (mouse): Antidepressant-like effects
CNCCC(Oc1ccc(C(F)(F)F)cc1)c1ccccc1 (stereo not drawn) [fluoxetine] | – | – | antidepressant effect in helpless mice (Helpless (H) mice; chronic (21 days) treatment): full antidepressant effect
Cc1cc(-c2cccc(C3=Nc4cc(C)c(C(F)(F)F)cc4NC(=O)C3)c2)cc(C)n1 [RO4491533] | – | – | activity in the tail suspension test (Helpless (H) mice): active; hypolocomotor effect of mGlu2/3 agonist (LY379268) [6]: reversed the hypolocomotor effect; immobility time (C57B16/J mice): dose-dependently reduced
N#CC1CCN(Cc2ccc3c(c2)c(=O)c(C(N)=O)cn3-c2ccc(F)cc2)CC1 [Compound 75, 6-((4-cyanopiperidin-1-yl)methyl)-1-(4-fluorophenyl)-4-oxo-1,4-dihydroquinoline-3-carboxamide] | 735 | 1.02 | –
CS(=O)(=O)N1CCN(Cc2ccc3c(c2)c(=O)c(C(N)=O)cn3-c2ccc(F)cc2)CC1 [Compound 83, 1-(4-fluorophenyl)-6-((4-(methylsulfonyl)piperazin-1-yl)methyl)-4-oxo-1,4-dihydroquinoline-3-carboxamide] | 694 | 1.47 | –
Cc1ncc(-c2ccc3c(c2)c(=O)c(C(N)=O)cn3-c2ccc(F)cc2)cn1 [Compound 62, 1-(4-fluorophenyl)-6-(2-methylpyrimidin-5-yl)-4-oxo-1,4-dihydroquinoline-3-carboxamide] | > 10000 | 30.3 | –
Cc1ccc(CCc2ccc3c(c2)c(=O)c(C(N)=O)cn3-c2ccc(F)cc2)cc1 [Compound 6, 1-(4-fluorophenyl)-6-(4-methylphenethyl)-4-oxo-1,4-dihydroquinoline-3-carboxamide] | > 10000 | 68.5 | –
NC(=O)c1cn(-c2ccc(F)cc2)c2ccc(N3Cc4cccnc4C3)cc2c1=O [Compound 43, 1-(4-fluorophenyl)-4-oxo-6-(5H-pyrrolo[3,4-b]pyridin-6(7H)-yl)-1,4-dihydroquinoline-3-carboxamide] | 5040 | 1.85 | –
CN(Cc1ccc2c(c1)c(=O)c(C(N)=O)cn2-c1ccc(F)cc1)C1CC(F)(F)C1 [Compound 80, 6-(((3,3-difluorocyclobutyl)(methyl)amino)methyl)-1-(4-fluorophenyl)-4-oxo-1,4-dihydroquinoline-3-carboxamide] | 397 | 1.03 | –
Cc1ncc(OCc2ccc3c(c2)c(=O)c(C(N)=O)cn3-c2ccc(F)cc2)cn1 [Compound 35, 1-(4-fluorophenyl)-6-(((2-methylpyrimidin-5-yl)oxy)methyl)-4-oxo-1,4-dihydroquinoline-3-carboxamide] | 287 ± 51 | 1.71 ± 0.2 | –
CCS(=O)(=O)N(Cc1cccnc1)c1cccc(-c2ccc(C#N)cc2)c1 [LY566332] | – | – | Aβ-induced neurodegeneration [7]: amplified
CC(Oc1ccc2c(c1)c(=O)c(C(N)=O)cn2-c1ccc(F)cc1)c1cccnc1 (stereo not drawn) [Compound 30, 1-(4-fluorophenyl)-4-oxo-6-(1-(pyridin-3-yl)ethoxy)-1,4-dihydroquinoline-3-carboxamide] | 391 ± 44 | 1.31 ± 0.45 | –
NC(=O)c1cn(-c2ccc(F)cc2)c2ccc(CN3CCCSCC3)cc2c1=O [Compound 71, 6-((1,4-thiazepan-4-yl)methyl)-1-(4-fluorophenyl)-4-oxo-1,4-dihydroquinoline-3-carboxamide] | 164 | 2.06 | –
NC(=O)c1cn(-c2ccc(F)cc2)c2ccc(N3CCC(N4CCOCC4)C3)cc2c1=O (stereo not drawn) [Compound 50, 1-(4-fluorophenyl)-6-(3-morpholinopyrrolidin-1-yl)-4-oxo-1,4-dihydroquinoline-3-carboxamide] | 1320 | 1.08 | –
CN1CCN(Cc2ccc3c(c2)c(=O)c(C(N)=O)cn3-c2ccc(F)cc2)CC1 [Compound 87, 1-(4-fluorophenyl)-6-((4-methylpiperazin-1-yl)methyl)-4-oxo-1,4-dihydroquinoline-3-carboxamide] | 1360 | 0.93 | –
NC(=O)c1cn(-c2ccc(F)cc2)c2ccc(COc3cccnc3F)cc2c1=O [Compound 39, 1-(4-fluorophenyl)-6-(((2-fluoropyridin-3-yl)oxy)methyl)-4-oxo-1,4-dihydroquinoline-3-carboxamide] | 883 | 0.83 | –
C[C@H]1CN(Cc2ccc3c(c2)c(=O)c(C(N)=O)cn3-c2ccc(F)cc2)CCO1 [Compound 88, (S)-1-(4-fluorophenyl)-6-((2-methylmorpholino)methyl)-4-oxo-1,4-dihydroquinoline-3-carboxamide] | 724 | 1.36 | –
CN(Cc1cccnc1)c1cc(F)c2c(c1)c(=O)c(C(N)=O)cn2-c1ccc(F)cc1 [Compound 51, 8-fluoro-1-(4-fluorophenyl)-6-(methyl(pyridin-3-ylmethyl)amino)-4-oxo-1,4-dihydroquinoline-3-carboxamide] | 1180 | 1.39 | –
NC(=O)c1cn(-c2ccc(F)cc2)c2ccc(CN3CCCOCC3)cc2c1=O [Compound 72, 6-((1,4-oxazepan-4-yl)methyl)-1-(4-fluorophenyl)-4-oxo-1,4-dihydroquinoline-3-carboxamide] | > 10000 | 29.6 | –
CC(=O)N1CCN(Cc2ccc3c(c2)c(=O)c(C(N)=O)cn3-c2ccc(F)cc2)CC1 [Compound 82, 6-((4-acetylpiperazin-1-yl)methyl)-1-(4-fluorophenyl)-4-oxo-1,4-dihydroquinoline-3-carboxamide] | 3190 | 2.14 | –
Cc1ccc(Oc2ccc3c(c2)c(=O)c(C(N)=O)cn3-c2ccc(F)cc2)cn1 [Compound 55, 1-(4-Fluorophenyl)-6-((6-methylpyridin-3-yl)oxy)-4-oxo-1,4-dihydroquinoline-3-carboxamide] | 1710 | 1.96 | –
CC1CCN(C)CCN1Cc1ccc2c(c1)c(=O)c(C(N)=O)cn2-c1ccc(F)cc1 (stereo not drawn) [Compound 68, 6-((4,7-dimethyl-1,4-diazepan-1-yl)methyl)-1-(4-fluorophenyl)-4-oxo-1,4-dihydroquinoline-3-carboxamide] | 4040 | 2.47 | –
